Measurements as given in patent US20240124442A1, “TRICYCLIC-AMIDO-BICYCLIC PRMT5 INHIBITORS” (AMGEN INC., priority 2021, published 2024).

Columns and labels:
HCT116 MTAP null cells = experiment: HCT116 MTAP null cell line proliferation / cell viability (CellTiter-Glo, 6 days); type: cell-based; conditions: 144 h; HCT116 MTAP null cells, 6 days treatment, CellTiter-Glo cell viability; read-out: HCT-116 MTAP null IC50
Procedure, shortened: (§1)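 Anti-proliferative IC50s were derived from CellTiter-Glo signal in HCT116 parent and MTAP-null cells after six days on compound. Serial dilutions reached top concentrations of 1, 10 or 50 μM, with DMSO-only wells as control.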

HCT116 WT cells = experiment: HCT116 WT (parent) cell line proliferation / cell viability (CellTiter-Glo, 6 days); type: cell-based; conditions: Homo sapiens, HCT-116, 144 h, 6 days treatment
Procedure, shortened: as §1

SMILES | IC50 (HCT116 MTAP null cells) | IC50 (HCT116 WT cells)
Cc1nccc2c(N)nc3ccc(C(=O)N(C)[C@@H]4COc5cc(C(F)(F)F)ccc54)cc3c12 [Example 222, 5-amino-N,1-dimethyl-N-((3S)-6-(trifluoromethyl)-2,3-dihydro-1-benzofuran-3-yl)benzo[c][2,6]-naphthyridine-9-carboxamide] | 0.28 µM | 3.91 µM
CN(C(=O)c1cc2c(cc1C(F)(F)F)nc(N)c1cnn(C)c12)[C@@H]1COc2cc(C(F)(F)F)ccc21 [Example 253, 4-amino-N,1-dimethyl-7-(trifluoromethyl)-N-((3S)-6-(trifluoromethyl)-2,3-dihydro-1-benzofuran-3-yl)-1H-pyrazolo[4,3-c]quinoline-8-carboxamide] | 0.035 µM | 2.1 µM
CN(C(=O)c1ccc2nc(N)c3c(c2c1)COC3)C1CCc2nc(C(F)(F)F)ccc21 (racemic) [Example 444, 4-amino-N-methyl-N-((5R)-2-(trifluoromethyl)-6,7-dihydro-5H-cyclopenta[b]pyridin-5-yl)-1,3-dihydrofuro[3,4-c]quinoline-8-carboxamide and 4-amino-N-methyl-N-((5S)-2-(trifluoromethyl)-6,7-dihydro-5H-cyclopenta[b]pyridin-5-yl)-1,3-dihydrofuro[3,4-c]quinoline-8-carboxamide] | 0.348 µM | 12.1 µM
CN(C(=O)c1ccc2nc(N)c3cnn(C)c3c2c1)[C@@H]1COCc2nc(Br)ccc21 (single isomer, unassigned) [Example 418] | 0.003 µM | 0.421 µM
Cc1nn(C)c2c1c(N)nc1cnc(C(=O)N(C)[C@@H]3COc4cc(C(F)(F)F)ccc43)cc12 [Example 265, 4-amino-N,1,3-trimethyl-N-((3S)-6-(trifluoromethyl)-2,3-dihydro-1-benzofuran-3-yl)-1H-pyrazolo[4,3-c][1,7]-naphthyridine-8-carboxamide] | 0.151 µM | 3.85 µM
CN(C(=O)c1cc2c3c(c(N)nc2cc1Cl)COC3)[C@@H]1CCc2nc(C(F)(F)F)ccc21 (single isomer, unassigned) [Example 558] | 0.017 µM | 0.941 µM
CN(C(=O)c1cc2c(cc1F)nc(N)c1c2cnn1C)[C@@H]1CCc2nc(C(F)(F)F)ccc21 (single isomer, unassigned) [Example 389] | 0.185 µM | 17.2 µM
CN(C(=O)c1cc2c(cc1F)nc(N)c1cnn(C)c12)[C@@H]1COc2cc(F)c(F)cc21 [Example 475, 4-amino-N-((3S)-5,6-difluoro-2,3-dihydro-1-benzofuran-3-yl)-7-fluoro-N,1-dimethyl-1H-pyrazolo[4,3-c]quinoline-8-carboxamide] | 0.008 µM | 0.199 µM
CN(C(=O)c1cc2c(cn1)nc(N)c1cnn(C)c12)[C@@H]1COc2cc(Cl)c(Cl)cc21 [Example 474, 4-amino-N-((3S)-5,6-dichloro-2,3-dihydro-1-benzofuran-3-yl)-N,1-dimethyl-1H-pyrazolo[4,3-c][1,7]naphthyridine-8-carboxamide] | 0.008 µM | 0.174 µM

Now from value to compound:

IC50 (HCT116 MTAP null cells) | IC50 (HCT116 WT cells) | SMILES
2.72 µM | 10 µM | CN(C(=O)c1cc2c3c(c(N)nc2cn1)COC3)[C@H]1COc2cc(C(F)(F)F)ccc21 (single isomer, unassigned) [Example 523]
0.173 µM | 13.4 µM | CN(C(=O)c1cc2c3c(c(N)nc2cn1)COC3)[C@@H]1COc2cc(F)c(F)cc21 [Example 452, 4-amino-N-((3S)-5,6-difluoro-2,3-dihydro-1-benzofuran-3-yl)-N-methyl-1,3-dihydrofuro[3,4-c][1,7]naphthyridine-8-carboxamide]
0.403 µM | 8.86 µM | CN(C(=O)c1cc2c3c(c(N)nc2cn1)COC3)[C@@H]1COCc2ccc(C(F)(F)F)cc21 (single isomer, unassigned) [Example 583]
0.068 µM | 4.16 µM | CN(C(=O)c1ccc2nc(N)c3c(c2c1)COC3)[C@@H]1COc2cc(C(F)(F)F)cc(F)c21 (single isomer, unassigned) [Example 325]
